The values below come from ChEMBL document CHEMBL5344472, “Discovery of Alternative Binding Poses through Fragment-Based Identification of DHODH Inhibitors” (ACS Med Chem Lett, 2024).

Series [1] addresses Dihydroorotate dehydrogenase (quinone), mitochondrial (Homo sapiens, UniProt Q02127). The experiment in a line: Inhibition of human DHODH in MOLM-13 AML cells. It is filed as cell-based.
The next series has as its target P-gp (ABCB1) (Homo sapiens, UniProt P08183). The experiment in a line: Substrate activity at P-gp (unknown origin) assessed as efflux ratio. The conditions noted are these: not told. It is filed as ADME.
A short description of series [2]: Permeability of compound in MDCK cells. It is filed as ADME, cell-based, Canis lupus familiaris. The conditions noted are these: dog, read-out: permeability.
Series [3] is described as follows: Intrinsic clearance in human liver microsomes. The format is ADME, Microsome. The conditions noted are these: read-out: CLH.
For the next series, the system named is MOLM-13. The experiment in a line: Antiproliferative activity in human MOLM-13 AML cells assessed as reduction in cell viability incubated for 72 hrs by CellTiter-Glo assay. The conditions noted are these: MOLM-13, 72 h. (In general: In ATP-based viability assays light output follows the ATP content of the culture.)
The nature of series [4]: Metabolic stability in human liver microsome assessed as half life. It is filed as ADME. The conditions noted are these: liver microsomes. On the technique in general: Microsomes from liver hold many membrane-bound enzymes, among them those of drug oxidation.
Series [5] is described as follows: Metabolic stability in mouse liver microsome assessed as half life. The format is ADME. The settings on record: liver microsomes.
Series [6] is described as follows: Microsomal stability in mouse assessed as half-life. The format is ADME, Microsome. The conditions noted are these: microsomes.
Series [7] is described as follows: Microsomal stability in human assessed as half-life. The settings on record: microsomes. It is filed as ADME, Microsome.
The nature of series [8]: Oral bioavailability in C57 mouse at 10 mg/kg. The conditions noted are these: in vivo. The format is ADME, organism-based.
A short description of series [9]: Half-life in C57 mouse at 10 mg/kg, po or 2 mg/kg, iv. It is filed as ADME, organism-based. The settings on record: in vivo.
Series [10] can be described thus: Volume of distribution at steady state in C57 mouse at 10 mg/kg, po or 2 mg/kg, iv. The format is ADME, organism-based. The conditions noted are these: in vivo.
Series [11] is described as follows: Plasma protein binding in mouse assessed as free fraction. It is filed as ADME, cell-free. The conditions noted are these: read-out: PPB.
Series [12] can be described thus: Plasma protein binding in human assessed as free fraction. The format is ADME, cell-free. The conditions noted are these: read-out: PPB.
Series [13] in a line: Clearance in iv dosed mouse assessed as hepatic blood flow. It is filed as ADME, organism-based. The settings on record: in vivo.

P-gp (ABCB1), sequence (P08183 whole entry): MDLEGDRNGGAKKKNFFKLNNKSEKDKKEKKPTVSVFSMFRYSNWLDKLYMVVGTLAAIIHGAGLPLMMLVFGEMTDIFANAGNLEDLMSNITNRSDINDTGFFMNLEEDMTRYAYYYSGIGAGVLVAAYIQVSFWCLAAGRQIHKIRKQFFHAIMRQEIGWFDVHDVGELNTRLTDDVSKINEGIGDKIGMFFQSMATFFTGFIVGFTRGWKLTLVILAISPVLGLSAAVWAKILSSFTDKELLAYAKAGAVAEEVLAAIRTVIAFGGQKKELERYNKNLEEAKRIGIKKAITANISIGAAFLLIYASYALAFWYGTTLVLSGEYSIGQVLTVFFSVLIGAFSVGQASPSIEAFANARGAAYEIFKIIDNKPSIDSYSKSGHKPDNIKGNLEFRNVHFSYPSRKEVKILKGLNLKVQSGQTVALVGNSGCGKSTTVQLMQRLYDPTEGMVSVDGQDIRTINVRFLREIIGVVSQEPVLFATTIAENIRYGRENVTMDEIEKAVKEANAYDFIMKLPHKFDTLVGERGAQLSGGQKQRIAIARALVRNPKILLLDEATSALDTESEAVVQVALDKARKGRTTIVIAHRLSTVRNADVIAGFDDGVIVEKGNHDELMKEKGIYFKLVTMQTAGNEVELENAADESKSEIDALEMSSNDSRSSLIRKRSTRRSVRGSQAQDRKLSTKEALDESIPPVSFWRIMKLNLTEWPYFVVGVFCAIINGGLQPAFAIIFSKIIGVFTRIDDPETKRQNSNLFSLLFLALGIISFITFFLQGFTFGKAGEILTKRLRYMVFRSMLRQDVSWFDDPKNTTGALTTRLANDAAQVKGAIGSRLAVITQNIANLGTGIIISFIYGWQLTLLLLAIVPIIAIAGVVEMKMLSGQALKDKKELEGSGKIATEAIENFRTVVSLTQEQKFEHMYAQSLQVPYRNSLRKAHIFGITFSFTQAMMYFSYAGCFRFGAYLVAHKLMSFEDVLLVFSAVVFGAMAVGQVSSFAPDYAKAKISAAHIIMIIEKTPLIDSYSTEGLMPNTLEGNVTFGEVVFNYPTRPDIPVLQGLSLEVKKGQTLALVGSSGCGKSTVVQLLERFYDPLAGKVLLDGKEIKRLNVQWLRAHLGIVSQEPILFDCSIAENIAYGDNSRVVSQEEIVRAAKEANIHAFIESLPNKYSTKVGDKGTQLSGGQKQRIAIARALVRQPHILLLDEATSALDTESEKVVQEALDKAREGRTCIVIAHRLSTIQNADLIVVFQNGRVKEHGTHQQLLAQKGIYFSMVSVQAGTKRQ
Dihydroorotate dehydrogenase (quinone), mitochondrial, sequence (Q02127 whole entry): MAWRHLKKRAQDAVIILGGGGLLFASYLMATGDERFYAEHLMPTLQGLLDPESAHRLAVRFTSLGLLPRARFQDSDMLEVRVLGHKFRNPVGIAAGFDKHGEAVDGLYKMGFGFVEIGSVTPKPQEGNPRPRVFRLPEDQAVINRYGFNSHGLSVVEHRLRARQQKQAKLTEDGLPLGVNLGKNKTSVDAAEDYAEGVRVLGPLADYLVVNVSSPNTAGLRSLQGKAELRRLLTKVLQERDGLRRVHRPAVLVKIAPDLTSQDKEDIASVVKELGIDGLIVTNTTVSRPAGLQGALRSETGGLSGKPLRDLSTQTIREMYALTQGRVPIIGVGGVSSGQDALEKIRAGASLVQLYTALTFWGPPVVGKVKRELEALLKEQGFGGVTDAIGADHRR

By IC50 is commonly meant the midpoint of a concentration-inhibition curve. In general, efflux ratio refers to a quotient of directional permeabilities that is used to spot active efflux. `CCn1c(CO)nn(-c2nc(O[C@@H](C)C(F)(F)F)c(C(=O)Nc3c(F)cccc3Cl)cc2F)c1=O` registered an IC50 in [1] of 0.24 nM. For the same compound, the efflux ratio at P-gp (ABCB1) was more than 30.
Regarding `CCn1c(CO)nn(-c2nc(O[C@@H](C)C(F)(F)F)c(C(=O)Nc3c(C)cnc(OC)c3Cl)cc2F)c1=O`, on P-gp (ABCB1), the efflux ratio is more than 30. The Papp in series [2] was found to be 27 ×10⁻⁶ cm/s. For the same compound, the CLint scaled in series [3] was less than 7.7 mL/min/kg.
A word on the half-life: it is how long it takes for the measured level to halve. With `C[C@H](Oc1cc(NC(=O)N2CC(CO)C2)c(F)cc1C(=O)Nc1c(F)cccc1Cl)C(F)(F)F`, the IC50 with MOLM-13 amounted to 430 nM. For the same compound, the half-life came to 142 min in [4] and 178 min in series [5].
`CCNC(=O)Nc1cc(O[C@@H](C)C(F)(F)F)c(C(=O)Nc2c(F)cccc2Cl)cc1F`: the half-inhibitory concentration (IC50) in the series on MOLM-13 worked out at 53 nM.
Same read-out and setting: then `CC(=O)Nc1cc(O[C@@H](C)C(F)(F)F)c(C(=O)Nc2c(F)cccc2Cl)cc1F`, with 370 nM.
For `CCCC(=O)Nc1cc(O[C@@H](C)C(F)(F)F)c(C(=O)Nc2c(F)cccc2Cl)cc1F`, in the series on MOLM-13, the IC50 worked out at 46 nM. In addition, the figures for the half-life in [6] and in series [7] were less than 4 min and 31 min, respectively.
For the compound `COCC1CCCN1C(=O)Nc1cc(O[C@@H](C)C(F)(F)F)c(C(=O)Nc2c(F)cccc2Cl)cc1F` (stereo partly specified), in the series on MOLM-13, the IC50 is 11 nM.
The same measure, in the same setting: as for `CCC(CC)C(=O)Nc1cc(O[C@@H](C)C(F)(F)F)c(C(=O)Nc2c(F)cccc2Cl)cc1F`, the figure is 53 nM.
Turning to `C[C@H](Oc1cc(NC(=O)N(C)C)c(F)cc1C(=O)Nc1c(F)cccc1Cl)C(F)(F)F`, the IC50 in the series on MOLM-13 came to 2 nM. The half-life in [4] is 22 min; in [5] it was less than 4 min.
The like results for `CCN(C(=O)Nc1cc(O[C@@H](C)C(F)(F)F)c(C(=O)Nc2c(F)cccc2Cl)cc1F)C1CC1` were, in that order, 1 nM, 50 min and 20 min.
With `C[C@H](Oc1cc(NC(=O)N2CCCC2)c(F)cc1C(=O)Nc1c(F)cccc1Cl)C(F)(F)F`, the IC50 with MOLM-13 was 1.3 nM.
Regarding `CCN(C)C(=O)Nc1cc(O[C@@H](C)C(F)(F)F)c(C(=O)Nc2c(F)cccc2Cl)cc1F`, the half-maximal inhibitory concentration (IC50) in the series with MOLM-13 was determined as 0.82 nM. The half-life in series [4] was 21 min; in series [5], less than 4 min.
Taken in the same sequence, the figures for `CCN(CC)C(=O)Nc1cc(O[C@@H](C)C(F)(F)F)c(C(=O)Nc2c(F)cccc2Cl)cc1F` were 0.63 nM, 26 min and 12 min.
Regarding `CC/C(=C\CO)C(=O)Nc1cc(O[C@@H](C)C(F)(F)F)c(C(=O)Nc2c(F)cccc2Cl)cc1F`, the IC50 in the series on MOLM-13 came to 64 nM.
Consider `C[C@H](Oc1cc(NC(=O)C2CC2)c(F)cc1C(=O)Nc1c(F)cccc1Cl)C(F)(F)F`, for which the IC50 with MOLM-13 worked out at 55 nM.
The same measure, in the same setting: as for `CCC(CCO)C(=O)Nc1cc(O[C@@H](C)C(F)(F)F)c(C(=O)Nc2c(F)cccc2Cl)cc1F` (stereo partly specified), the figure is 206 nM; as for `C[C@H](Oc1cc(NC(=O)N2CCC(F)(F)C2)c(F)cc1C(=O)Nc1c(F)cccc1Cl)C(F)(F)F`, 4.3 nM.
Still for that read-out and setting: as for `CCC(=O)Nc1cc(O[C@@H](C)C(F)(F)F)c(C(=O)Nc2c(F)cccc2Cl)cc1F`, the figure is 35 nM.
For the compound `CCN(CC)C(=O)N(C)c1cc(O[C@@H](C)C(F)(F)F)c(C(=O)Nc2c(F)cccc2Cl)cc1F`, the IC50 with MOLM-13 worked out at 25 nM. Also, the half-life in [4] and in series [5] was less than 4 min in each case.
Take `C[C@H](Oc1cc(NC(=O)N2CCCC2CO)c(F)cc1C(=O)Nc1c(F)cccc1Cl)C(F)(F)F` (mixture of isomers): the IC50 in the series with MOLM-13 came to 1.5 nM. The half-life in [4] turned out to be 56 min; in series [5], 45 min.
The like results for `C[C@H](Oc1cc(NC(=O)N2CCC2CO)c(F)cc1C(=O)Nc1c(F)cccc1Cl)C(F)(F)F` (mixture of isomers) were, in that order, 1.6 nM, 28 min and 15 min.
The term bioavailability denotes dose-corrected exposure relative to a reference, in per cent. Read a high bioavailability as good availability. Regarding `C[C@H](Oc1cc(NC(=O)N2C(=O)CCC2CO)c(F)cc1C(=O)Nc1c(F)cccc1Cl)C(F)(F)F` (mixture of isomers), the IC50 with MOLM-13 came to 0.92 nM. The half-life in [4] is 62 min; in [5] it was 106 min; in series [9], 180 min. The same compound yielded a bioavailability in [8] of more than 100%. For the same compound, the Vdss in series [10] turned out to be 3.6 L/kg. Moreover, the fraction unbound in [11] turned out to be 0.007; in series [12], 0.012. For the same compound, in series [13], the QH was ~ 20%.
